Reference: patent publication US20040063949A1, “Compounds” (priority 2001, published 2004)
Where two headings read alike, the source gives them in different places. Values belong to the molecule of their own block, whether it stands above or below them.

System: TGF-β signaling (PAI-1 promoter-luciferase in HepG2 cells)
Experiment: Assay 1: PAI-1 promoter luciferase reporter assay in HepG2 cells exposed to TGF-β
Method: The assay was performed in HepG2 cells stably transfected with the PAI-1 promoter (known to be a strong TGF-β responsive promoter) linked to a luciferase (firefly) reporter gene. The compounds were selected on their ability to inhibit luciferase activity in cells exposed to TGF-β. In addition cells were transfected with a second luciferase (Renilla) gene which was not driven by a TGF-β responsive promoter and was used as a toxicity control.
(96 well) microplates are seeded, using a multidrop apparatus, with the stably transfected cell line at a concentration of 35000 cells per well in 200 μl of serum-containing medium. These plates are placed in a cell incubator.
18 to 24 hours later (Day 2), cell-incubation procedure is launched. Cells are incubated with TGF-β and a candidate compound at concentrations in the range 50 nM to 10 μM (final concentration of DMSO 1%). The final concentration of TGF-β (rhTGFβ-1) used in the test is 1 ng/mL. […] The final volume of the test reaction is 150 μl. Each well contains only one candidate compound and its effect on the PAI-1 promoter is monitored.
Columns 11 and 12 are employed as controls. Column 11 contains 8 wells in which the cells are incubated in the presence of TGF-β, without a candidate compound. Column 11 is used to determine the ‘reference TGF-β induced firefly luciferase value’ against which values measured in the test wells (to quantify inhibitory activity) may be compared. In wells A12 to D12, cells are grown in medium without TGF-β. […]
12 to 18 hours later (day 3), the luciferase quantification procedure is launched. […] Following agitation (15 to 30 mins), luciferase activities of the plates are read in a dual-injector luminometer (BMG lumistar). For this purpose, 50 μl of luciferase assay reagent and 50 μl of ‘Stop & Glo’ buffer are injected sequentially to quantify the activities of both luciferases. […] For each of the compounds tested, a concentration response curve is constructed from which an IC50 value can be determined graphically.

SMILES: O=C1C=CCC1 [CPO, Cyclopentenone, reference compound]
firefly and renilla luciferase activities relative to those obtained in column 11 (TGF-β only) (500 μM CPO in presence of TGF-β, toxicity control wells E12 to H12): around 50%

IC50 (Homo sapiens, HepG2, read-out: IC50 value in Assay 1 (inhibition of TGF-β induced firefly luciferase activity)): ~50 nM
SMILES: c1ccc(-c2n[nH]cc2-c2ccc3ncccc3n2)nc1 [Example 1, 2-(3-Pyridin-2-yl-1H-pyrazol-4-yl)-1,5-naphthyridine]

IC50 (read-out: IC50 value in Assay 1 (inhibition of TGF-β induced firefly luciferase activity), HepG2 cells stably transfected with PAI-1 promoter-luciferase, rhTGFβ-1 1 ng/mL, 1% DMSO): ~50 nM
SMILES: Cc1cccc(-c2n[nH]cc2-c2ccc3ncccc3n2)n1 [Example 2]
